# According to patent publication US8604218B2, “Cytoskeletal active rho kinase inhibitor compounds, composition and use” (Inspire Pharmaceuticals, Inc., priority 2006, dated 2013):
# Molecular target: ROCK2 (Homo sapiens (Human), UniProt O75116)
# Assay: Rho Kinase Inhibition Assay (IMAP fluorescence polarization)
# Format: biochemical
# Conditions: isolated enzyme, 10 μM ATP, 60 minutes at room temperature
# Experimental: Following the preincubation, 10 μM ATP was added to initiate the reaction. After 60 minutes at room temperature, Molecular Devices IMAP™ binding solution was added to bind phosphorylated substrate. After 30 minutes of incubation in the presence of the IMAP™ beads the fluorescence polarization was read and the ratio was reported as mP. IC50 results were calculated using the Prism software from Graphpad.
# See Tian et al., Arch. Ophthalmol. […] Ophthalmol. Vis. […] Ophthalmol. […] Cytoskel. […] Ophthalmol. Vis. […] Ophthalmol. Vis.
# Chain of ROCK2 (O75116 11-552): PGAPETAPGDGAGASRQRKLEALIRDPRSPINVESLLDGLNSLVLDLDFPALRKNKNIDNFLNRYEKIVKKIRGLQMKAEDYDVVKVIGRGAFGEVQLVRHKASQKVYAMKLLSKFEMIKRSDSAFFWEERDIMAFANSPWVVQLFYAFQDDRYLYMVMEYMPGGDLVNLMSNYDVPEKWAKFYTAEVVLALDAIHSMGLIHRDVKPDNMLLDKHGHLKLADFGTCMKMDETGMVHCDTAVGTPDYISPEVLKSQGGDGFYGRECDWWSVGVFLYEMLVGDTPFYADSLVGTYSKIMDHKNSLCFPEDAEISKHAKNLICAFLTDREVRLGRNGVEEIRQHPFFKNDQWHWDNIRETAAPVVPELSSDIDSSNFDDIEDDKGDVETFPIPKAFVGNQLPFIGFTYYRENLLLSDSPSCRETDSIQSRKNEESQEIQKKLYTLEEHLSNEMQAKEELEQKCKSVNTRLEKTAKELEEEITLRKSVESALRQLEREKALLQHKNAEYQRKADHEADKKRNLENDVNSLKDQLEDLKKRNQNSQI
row,IC50,SMILES
1,112 nM,"CS(=O)(=O)Nc1cccc(CN2CC[C@@H](Nc3cccc4cnccc34)C2)c1 [Compound 2.038, (R)-N-(3-((3-(isoquinolin-5-ylamino)pyrrolidin-1-yl)methyl)phenyl)methanesulfonamide]"
2,65.8 nM,"CSc1ccc(CN2CCCC(Nc3ccc4[nH]ncc4c3)C2)cc1 (centres unmarked) [Compound 1.008, N-(1-(4-(methylthio)benzyl)piperidin-3-yl)-1H-indazol-5-amine]"
3,254 nM,"CS(=O)(=O)c1ccc(CN2CCC(Nc3ccc4[nH]ncc4c3)C2)cc1 (centres unmarked) [Compound 1.004, N-(1-(4-(methylsulfonyl)benzyl)pyrrolidin-3-yl)-1H-indazol-5-amine]"
4,208 nM,"NCc1ccc(CN2CCCC(Nc3ccc4[nH]ncc4c3)C2)cc1 (centres unmarked) [Compound 1.035, N-(1-(4-(aminomethyl)benzyl)piperidin-3-yl)-1H-indazol-5-amine]"
5,73.9 nM,"c1ccc(CN2CCC(Nc3cccc4cnccc34)C2)cc1 (centres unmarked) [Compound 2.006, N-(1-benzylpyrrolidin-3-yl)isoquinolin-5-amine]"
6,49.4 nM,"CS(=O)(=O)Nc1cccc(CN2CCC[C@H](Nc3ccc4[nH]ncc4c3)C2)c1 [Compound 1.091, (S)-N-(3-((3-(1H-indazol-5-ylamino)piperidin-1-yl)methyl)phenyl)methanesulfonamide]"
7,1780 nM,"CS(=O)(=O)c1ccc(CN2CCC(Nc3cccc4cnccc34)C2)cc1 (centres unmarked) [Compound 2.005, N-(1-(4-(methylsulfonyl)benzyl)pyrrolidin-3-yl)isoquinolin-5-amine]"
8,632 nM,"FC(F)(F)c1cccc(CN2CCC(Nc3cccc4cnccc34)C2)c1 (centres unmarked) [Compound 2.018, N-(1-(3-(trifluoromethyl)benzyl)pyrrolidin-3-yl)isoquinolin-5-amine]"
9,789 nM,"Cc1ccc(CN2CC[C@H](Nc3cccc4cnccc34)C2)cc1 [Compound 2.028, (S)-N-(1-(4-methylbenzyl)pyrrolidin-3-yl)isoquinolin-5-amine]"
10,160 nM,"OCCOc1cccc(CN2CCC[C@H](Nc3cccc4cnccc34)C2)c1 [Compound 2.036, (S)-2-(3-((3-(isoquinolin-5-ylamino)piperidin-1-yl)methyl)phenoxy)ethanol]"
11,1610 nM,"FC(F)(F)Oc1ccc(CN2CCCC(Nc3ccc4[nH]ncc4c3)C2)cc1 (centres unmarked) [Compound 1.022, N-(1-(4-(trifluoromethoxy)benzyl)piperidin-3-yl)-1H-indazol-5-amine]"
12,53.1 nM,"C#Cc1ccc(CN2CCC[C@H](Nc3ccc4[nH]ncc4c3)C2)cc1 [Compound 1.077, (S)-N-(1-(4-ethynylbenzyl)piperidin-3-yl)-1H-indazol-5-amine]"
13,68.5 nM,"OCCn1ccc2ccc(CN3CCCC(Nc4ccc5[nH]ncc5c4)C3)cc21 (centres unmarked) [Compound 1.101, 2-(6-((3-(1H-indazol-5-ylamino)piperidin-1-yl)methyl)-1H-indol-1-yl)ethanol]"
14,647 nM,"CS(=O)(=O)Nc1cccc(CN2CC[C@H](Nc3ccc4[nH]ncc4c3)C2)c1 [Compound 1.095, (S)-N-(3-((3-(1H-indazol-5-ylamino)pyrrolidin-1-yl)methyl)phenyl)methanesulfonamide]"
15,12200 nM,"c1cc(N2CCOCC2)ccc1CN1CCCC(Nc2ccc3[nH]ncc3c2)C1 (centres unmarked) [Compound 1.012, N-(1-(4-morpholinobenzyl)piperidin-3-yl)-1H-indazol-5-amine]"
16,6050 nM,"Clc1ccc(Oc2cccc(CN3CCCC(Nc4ccc5[nH]ncc5c4)C3)c2)cc1 (centres unmarked) [Compound 1.069, N-(1-(3-(4-chlorophenoxy)benzyl)piperidin-3-yl)-1H-indazol-5-amine]"
17,5720 nM,"N#Cc1cccc(CN2CCCC(Nc3cccc4cnccc34)C2)c1 (centres unmarked) [Compound 2.003, 3-((3-(isoquinolin-5-ylamino)piperidin-1-yl)methyl)benzonitrile]"
18,322 nM,"COc1ccc(CN2CCC(Nc3cccc4cnccc34)C2)cc1 (centres unmarked) [Compound 2.017, N-(1-(4-methoxybenzyl)pyrrolidin-3-yl)isoquinolin-5-amine]"
19,32 nM,"Cc1ccc(CN2CCCC(Nc3ccc4[nH]ncc4c3)C2)cc1O (centres unmarked) [Compound 1.059, 5-((3-(1H-indazol-5-ylamino)piperidin-1-yl)methyl)-2-methylphenol]"
20,4010 nM,"OCCOc1cccc(CN2CCC[C@@H](Nc3cccc4cnccc34)C2)c1 [Compound 2.034, (R)-2-(3-((3-(isoquinolin-5-ylamino)piperidin-1-yl)methyl)phenoxy)ethanol]"
21,1490 nM,"c1ccc(CN2CCCC(Nc3cccc4cnccc34)CC2)cc1 (centres unmarked) [Compound 2.013, N-(1-benzylazepan-4-yl)isoquinolin-5-amine]"

row,IC50,SMILES
1,215 nM,"CCSc1ccc(CN2CCCC(Nc3ccc4[nH]ncc4c3)C2)cc1 (centres unmarked) [Compound 1.017, N-(1-(4-(ethylthio)benzyl)piperidin-3-yl)-1H-indazol-5-amine]"
2,368 nM,"CSc1ccc(CN2CCCC(Nc3cccc4cnccc34)C2)cc1 (centres unmarked) [Compound 2.009, N-(1-(4-(methylthio)benzyl)piperidin-3-yl)isoquinolin-5-amine]"
3,148 nM,"NC(=O)Cn1ccc2ccc(CN3CCC[C@H](Nc4ccc5[nH]ncc5c4)C3)cc21 [Compound 1.107, (S)-2-(6-((3-(1H-indazol-5-ylamino)piperidin-1-yl)methyl)-1H-indol-1-yl)acetamide]"
4,109 nM,"CCS(=O)(=O)Nc1cccc(CN2CCCC(Nc3ccc4[nH]ncc4c3)C2)c1 (centres unmarked) [Compound 1.120, N-(3-((3-(1H-indazol-5-ylamino)piperidin-1-yl)methyl)phenyl)ethanesulfonamide]"
5,1040 nM,"Nc1n[nH]c2ccc(NC3CCCN(Cc4ccccc4)C3)cc12 (centres unmarked) [Compound 1.050, N5-(1-benzylpiperidin-3-yl)-1H-indazole-3,5-diamine]"
6,242 nM,"OCCn1ccc2ccc(CN3CCC[C@H](Nc4ccc5[nH]ncc5c4)C3)cc21 [Compound 1.109, (S)-2-(6-((3-(1H-indazol-5-ylamino)piperidin-1-yl)methyl)-1H-indol-1-yl)ethanol]"
7,9980 nM,"CC(C)Oc1ccc(CN2CCCC(Nc3ccc4[nH]ncc4c3)C2)cc1 (centres unmarked) [Compound 1.015, N-(1-(4-isopropoxybenzyl)piperidin-3-yl)-1H-indazol-5-amine]"
8,2460 nM,"Clc1ccc(CN2CC[C@H](Nc3cccc4cnccc34)C2)cc1 [Compound 2.030, (S)-N-(1-(4-chlorobenzyl)pyrrolidin-3-yl)isoquinolin-5-amine]"
9,879 nM,"O=C(O)COc1cccc(CN2CCC[C@@H](Nc3ccc4[nH]ncc4c3)C2)c1 [Compound 1.125, (R)-2-(3-((3-(1H-indazol-5-ylamino)piperidin-1-yl)methyl)phenoxy)acetic acid]"
10,132 nM,"c1cc2cc(CN3CCCC(Nc4ccc5[nH]ncc5c4)C3)ccc2s1 (centres unmarked) [Compound 1.054, N-(1-(benzo[b]thiophen-5-ylmethyl)piperidin-3-yl)-1H-indazol-5-amine]"
11,86.9 nM,"CCc1ccc(CN2CCCC(Nc3ccc4[nH]ncc4c3)C2)cc1 (centres unmarked) [Compound 1.033, N-(1-(4-ethylbenzyl)piperidin-3-yl)-1H-indazol-5-amine]"
12,6190 nM,"CC(=O)Nc1ccc(CN2CCCC(Nc3ccc4[nH]ncc4c3)C2)cc1 (centres unmarked) [Compound 1.003, N-(4-((3-(1H-indazol-5-ylamino)piperidin-1-yl)methyl)phenyl)acetamide]"
13,135 nM,"CCS(=O)(=O)Nc1cccc(CN2CCC[C@@H](Nc3ccc4[nH]ncc4c3)C2)c1 [Compound 1.123, (R)-N-(3-((3-(1H-indazol-5-ylamino)piperidin-1-yl)methyl)phenyl)ethanesulfonamide]"
14,59.2 nM,"CCS(=O)(=O)Nc1cccc(CN2CCC[C@H](Nc3ccc4[nH]ncc4c3)C2)c1 [Compound 1.124, (S)-N-(3-((3-(1H-indazol-5-ylamino)piperidin-1-yl)methyl)phenyl)ethanesulfonamide]"
15,71.6 nM,"CSc1ccc(CN2CCC[C@@H](Nc3ccc4[nH]ncc4c3)C2)cc1 [Compound 1.074, (R)-N-(1-(4-(methylthio)benzyl)piperidin-3-yl)-1H-indazol-5-amine]"
16,69.1 nM,"C#Cc1ccc(CN2CCCC(Nc3ccc4[nH]ncc4c3)C2)cc1 (centres unmarked) [Compound 1.034, N-(1-(4-ethynylbenzyl)piperidin-3-yl)-1H-indazol-5-amine]"
17,69.2 nM,"NC(=O)Cn1ccc2ccc(CN3CCC[C@@H](Nc4ccc5[nH]ncc5c4)C3)cc21 [Compound 1.106, (R)-2-(6-((3-(1H-indazol-5-ylamino)piperidin-1-yl)methyl)-1H-indol-1-yl)acetamide]"
18,588 nM,"OCc1ccc(CN2CCCC(Nc3ccc4[nH]ncc4c3)C2)cc1 (centres unmarked) [Compound 1.025, (4-((3-(1H-indazol-5-ylamino)piperidin-1-yl)methyl)phenyl)methanol]"
19,63.1 nM,"Cc1ccc(CN2CCC[C@H](Nc3ccc4[nH]ncc4c3)C2)cc1 [Compound 1.078, (S)-N-(1-(4-methylbenzyl)piperidin-3-yl)-1H-indazol-5-amine]"
20,189 nM,"c1cc2c(cc1CN1CCCC(Nc3ccc4[nH]ncc4c3)C1)OCCO2 (centres unmarked) [Compound 1.053, N-(1-((2,3-dihydrobenzo[b][1,4]dioxin-6-yl)methyl)piperidin-3-yl)-1H-indazol-5-amine]"
21,433 nM,"O=C(O)COc1cccc(CN2CC[C@@H](Nc3cccc4cnccc34)C2)c1 [Compound 2.044, (R)-2-(3-((3-(isoquinolin-5-ylamino)pyrrolidin-1-yl)methyl)phenoxy)acetic acid]"

row,SMILES,IC50
1,"OC[C@H](O)COc1cccc(CN2CCC[C@@H](Nc3ccc4[nH]ncc4c3)C2)c1 [Compound 1.113, (S)-3-(3-(((R)-3-(1H-indazol-5-ylamino)piperidin-1-yl)methyl)phenoxy)propane-1,2-diol]",859 nM
2,"CSc1ccc(CN2CC[C@H](Nc3cccc4cnccc34)C2)cc1 [Compound 2.029, (S)-N-(1-(4-(methylthio)benzyl)pyrrolidin-3-yl)isoquinolin-5-amine]",3140 nM
